Data from ChEMBL document CHEMBL1201862, “PubChem BioAssay data set” (2004).
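Protocol summary: plate cells (96-well), add compound at 5 concentrations, incubate 48 h, interpolate endpoints linearly. GI50 marks 50% less growth.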 Activity calls are given as the source filed them. No stated cut-off is given here; in the data, active = GI50 up to about 1.1 µM and inactive = higher.

Assays:
Assay in all cases: NCI-60 cell line screen, 48 h
DLD-1 = test system: DLD-1
SNB-78 = test system: SNB-78
RXF 631 = test system: RXF 631
DMS-273 = test system: DMS-273
KM-20L2 = test system: KM-20L2
HOP-18 = test system: HOP-18
DMS-114 = test system: DMS-114
LXFL 529 = test system: LXFL 529
XF498 = test system: XF498

Measured: GI50

Oc1nnc(CNc2ccc(Cl)cc2Cl)c2ccccc12
inactive: DLD-1 21.2 µM | SNB-78 62.7 µM | RXF 631 > 100 µM | DMS-273 19.5 µM | KM-20L2 25.6 µM | HOP-18 23.1 µM | DMS-114 13.9 µM | LXFL 529 17.1 µM

N#[N+]c1ccccc1Sc1ccc(Cl)cc1
inactive: DLD-1 > 100 µM | SNB-78 > 100 µM | RXF 631 67.9 µM | DMS-273 > 100 µM | KM-20L2 > 100 µM | XF498 > 100 µM | DMS-114 48.1 µM | LXFL 529 > 100 µM

C[C@]12CC(C=O)C(=O)C(O)=C1CC[C@@H]1C2CC[C@@]2(C)C1CC[C@]2(C)O (some centres undefined)
inactive: DLD-1 8.55 µM | SNB-78 16.5 µM | RXF 631 25.6 µM | DMS-273 21.6 µM | KM-20L2 22 µM | XF498 18.2 µM | DMS-114 16.5 µM | LXFL 529 16.6 µM

COC(=O)C12C3C4C1C1C2C3C41I (centres undefined)
inactive: DLD-1 > 100 µM | SNB-78 > 100 µM | RXF 631 > 100 µM | KM-20L2 > 100 µM | HOP-18 > 100 µM | XF498 > 100 µM | DMS-114 > 100 µM | LXFL 529 > 100 µM

NC(=O)N/N=C(\CC1OC(=O)c2ccccc21)c1ccc([N+](=O)[O-])cc1 (centres undefined)
inactive: DLD-1 22.4 µM | DMS-273 28.1 µM | KM-20L2 29.2 µM | XF498 26.9 µM | LXFL 529 27.9 µM

C/C(=C1/CCC/C(=C(/C)c2ccccc2)C1=O)c1ccccc1
inactive: DLD-1 43.4 µM | SNB-78 36.5 µM | DMS-273 32 µM | KM-20L2 40.5 µM | HOP-18 > 100 µM | XF498 30.6 µM | DMS-114 21.7 µM | LXFL 529 43.1 µM

CC1=CC2CCC1(C)C/C2=C(/C)OC=O (centres undefined)
inactive: DLD-1 > 100 µM | SNB-78 > 100 µM | DMS-273 > 100 µM | KM-20L2 > 100 µM | HOP-18 > 100 µM | XF498 > 100 µM | DMS-114 > 100 µM | LXFL 529 > 100 µM

CCc1cc(Cc2cc(Cl)c(NC(=O)C(=O)C3NC(=O)NC3=O)c(CC)c2)cc(Cl)c1NC(=O)C(=O)C1NC(=O)NC1=O (centres undefined)
inactive: SNB-78 75.7 µM | DMS-273 20.4 µM | KM-20L2 33.9 µM | HOP-18 > 100 µM | DMS-114 26.9 µM | LXFL 529 45.1 µM

CNC(=O)NCCN1N=C(C)/C(=C\c2ccccc2)CC1=O
inactive: DLD-1 > 100 µM | SNB-78 > 100 µM | RXF 631 > 100 µM | DMS-273 > 100 µM | XF498 > 100 µM | LXFL 529 > 100 µM

CCn1c(=O)c2ccccc2n2c(=O)c3cc4ccccc4cc3nc12
inactive: DLD-1 > 100 µM | SNB-78 39.8 µM | DMS-273 > 100 µM | KM-20L2 > 100 µM | XF498 15.8 µM | DMS-114 > 100 µM | LXFL 529 > 100 µM

O=S1(=O)COc2ccccc2-c2ncncc21
inactive: DLD-1 > 100 µM | SNB-78 > 100 µM | RXF 631 > 100 µM | KM-20L2 > 100 µM | HOP-18 > 100 µM | DMS-114 > 100 µM | LXFL 529 > 100 µM
